Patent US20260176320A1, “MODULATORS OF G-PROTEIN COUPLED RECEPTORS” (priority 2018, published 2026)
Read-outs that look alike come from different tables or passages of the source.

How the values were obtained:
Format in all cases: cell-based
GLP-1R [1] = target: T1, GLP-1R (Homo sapiens, UniProt P43220); assay: HitHunter cAMP assay (GLP-1R); details: Table 3A, cAMP; for Emax: read-out: (Emax) GLP-1R
Summary of the method: (§1)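 cAMP accumulation read by luminescent HitHunter immunocompetition after 30 min room-temperature agonist stimulation. Agonists tested as 22-point twofold dilutions, in duplicate, on 10,000 cells/well in HBSS containing 625 μM IBMX, 10 mM HEPES and 0.2% BSA.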

GLP-1R [2] = target: T1, GLP-1R; assay: PathHunter β-arrestin assay
Summary of the method: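 β-Arrestin recruitment measured by PathHunter enzyme-fragment luminescence, read after 3 h dark incubation at room temperature with detection solution. Beforehand, agonist in a 22-point 2-fold series was applied in duplicate for 90 min at 37 °C to 5,000 cells/well in BSA-containing (0.2%) medium.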

GIP-R = target: T2, GIP-R (Homo sapiens, UniProt P48546); assay: HitHunter cAMP assay (GIP-R); details: Table 3A, cAMP; for Emax: read-out: (Emax) GIP-R
T2 sequence (P48546 22-466): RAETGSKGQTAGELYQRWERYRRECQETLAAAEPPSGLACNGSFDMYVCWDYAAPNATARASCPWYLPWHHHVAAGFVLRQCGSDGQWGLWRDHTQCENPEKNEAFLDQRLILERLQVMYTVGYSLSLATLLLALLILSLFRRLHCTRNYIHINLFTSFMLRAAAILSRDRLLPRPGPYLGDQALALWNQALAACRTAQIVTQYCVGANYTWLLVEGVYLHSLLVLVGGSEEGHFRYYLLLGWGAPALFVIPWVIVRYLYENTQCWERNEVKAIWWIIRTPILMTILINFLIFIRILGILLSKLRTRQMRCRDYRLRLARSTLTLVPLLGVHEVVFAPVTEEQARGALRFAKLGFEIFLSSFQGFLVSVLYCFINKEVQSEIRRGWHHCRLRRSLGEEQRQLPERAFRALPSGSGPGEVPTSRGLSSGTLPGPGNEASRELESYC
Summary of the method: as §1

T1 sequence (P43220 24-463): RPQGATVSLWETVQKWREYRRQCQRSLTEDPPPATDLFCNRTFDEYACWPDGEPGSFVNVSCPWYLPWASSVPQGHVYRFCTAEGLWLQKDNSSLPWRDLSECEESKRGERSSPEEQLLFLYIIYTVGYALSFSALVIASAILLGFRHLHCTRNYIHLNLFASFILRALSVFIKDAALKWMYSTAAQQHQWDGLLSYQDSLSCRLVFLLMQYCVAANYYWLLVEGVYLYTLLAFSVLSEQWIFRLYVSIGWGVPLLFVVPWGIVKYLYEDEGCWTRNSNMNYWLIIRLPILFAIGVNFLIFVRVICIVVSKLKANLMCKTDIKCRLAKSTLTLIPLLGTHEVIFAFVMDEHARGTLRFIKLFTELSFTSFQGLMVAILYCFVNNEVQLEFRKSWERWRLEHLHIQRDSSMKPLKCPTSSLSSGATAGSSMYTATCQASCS

Compound | Emax (GLP-1R [1]) [%] | EC50 (GLP-1R [1]; read-out: EC50 GLP-1R/nM) [nM] | EC50 (GLP-1R [2]; PathHunter β-arrestin assay, read-out: β-arrestin activity EC50) [nM] | Emax (GIP-R) [%] | EC50 (GIP-R; read-out: EC50 GIP-R/nM) [nM] | EC50 (GLP-1R [1]; EC50 GLP-1R/nM) [nM] | EC50 (GLP-1R [2]) [nM] | EC50 (GIP-R; EC50 GIP-R/nM) [nM]
CCCCCCCCCCCCCCCC(=O)N[C@@H](CCC(=O)NCCCC[C@H](NC(=O)[C@H](CO)NC(=O)[C@@H]1CCCN1C(=O)[C@@H]1CCCN1C(=O)[C@@H]1CCCN1C(=O)[C@H](C)NC(=O)CNC(=O)[C@H](CO)NC(=O)[C@H](CO)NC(=O)[C@@H]1CCCN1C(=O)CNC(=O)CNC(=O)[C@H](C)NC(=O)[C@H](CC(C)C)NC(=O)[C@H](CC(C)C)NC(=O)[C@H](Cc1c[nH]c2ccccc12)NC(=O)[C@H](CC(N)=O)NC(=O)[C@@H](NC(=O)[C@H](Cc1ccccc1)NC(=O)[C@H](CCC(=O)O)NC(=O)C(C)(C)NC(=O)[C@H](C)NC(=O)[C@H](C)NC(=O)[C@H](CCC(N)=O)NC(=O)[C@H](CCCCN)NC(=O)[C@H](CC(=O)O)NC(=O)[C@H](CC(C)C)NC(=O)[C@H](Cc1ccc(O)cc1)NC(=O)[C@@H](NC(=O)[C@H](CO)NC(=O)[C@H](Cc1ccc(O)cc1)NC(=O)[C@H](CC(=O)O)NC(=O)[C@H](CO)NC(=O)[C@@H](NC(=O)[C@H](Cc1ccccc1)NC(=O)[C@@H](NC(=O)CNC(=O)[C@H](CCC(=O)O)NC(=O)CCNC(=O)CCN1CCCC1=O)[C@@H](C)O)[C@@H](C)O)[C@@H](C)CC)C(C)C)C(N)=O)C(=O)O [Compound 265] | 100 | < 0.1 | < 10 | 80 | 0.1 to 1 | – | – | –
CCCCCCCCCCCCCCCC(=O)N[C@@H](CCC(=O)NCCCC[C@H](NC(=O)[C@H](CO)NC(=O)[C@@H]1CCCN1C(=O)[C@@H]1CCCN1C(=O)[C@@H]1CCCN1C(=O)[C@H](C)NC(=O)CNC(=O)[C@H](CO)NC(=O)[C@H](CO)NC(=O)[C@@H]1CCCN1C(=O)CNC(=O)CNC(=O)[C@H](C)NC(=O)[C@H](CC(C)C)NC(=O)[C@H](CC(C)C)NC(=O)[C@H](Cc1c[nH]c2ccccc12)NC(=O)[C@H](CC(N)=O)NC(=O)[C@@H](NC(=O)[C@H](Cc1ccccc1)NC(=O)[C@H](CCC(=O)O)NC(=O)C(C)(C)NC(=O)[C@H](C)NC(=O)[C@H](C)NC(=O)[C@H](CCC(N)=O)NC(=O)[C@H](CCCCN)NC(=O)[C@H](CC(=O)O)NC(=O)[C@H](CC(C)C)NC(=O)[C@H](Cc1ccc(O)cc1)NC(=O)[C@@H](NC(=O)[C@H](CO)NC(=O)[C@H](Cc1ccc(O)cc1)NC(=O)[C@H](CC(=O)O)NC(=O)[C@H](CO)NC(=O)[C@@H](NC(=O)[C@H](Cc1ccccc1)NC(=O)[C@@H](NC(=O)CNC(=O)[C@H](CCC(=O)O)NC(=O)CSCC(=O)NCCn1ccc(C)cc1=O)[C@@H](C)O)[C@@H](C)O)[C@@H](C)CC)C(C)C)C(N)=O)C(=O)O [Compound 285] | 99 | – | – | 97 | – | < 0.1 | > 1000 | 0.1 to 1
